Patent US12582641B2, “Sulfur-containing compound based on glutarimide skeleton and application thereof” (SHANGHAITECH UNIVERSITY, priority 2019, dated 2026)

Tested on: MM.1S cells
Experiment: Proliferation inhibition (IC50) in MM.1S cells, cell viability assay
Conditions: Homo sapiens, MM1.S, 72 h, read-out: IC50 (nM), proliferation inhibitory activity of MM.1S cells (half inhibitory concentration)

Row | Structure (SMILES) | IC50
1 | O=C1CCC(N2Cc3c(SCc4ccc(/C=C/Br)cc4)cccc3C2=O)C(=O)N1 (centres unmarked) [SIAIS1224154, (E)-3-(4-((4-(2-bromovinyl)benzyl)thio)-1-oxoisoindolin-2-yl)piperidine-2,6-dione] | 0.809 nM
2 | CN(CCCCCCCSc1cccc2c1CN(C1CCC(=O)NC1=O)C2=O)C1CC1 (centres unmarked) [SIAIS1222103, 3-(4-((7-(cyclopropyl(methyl)amino)heptyl)thio)-1-oxoisoindolin-2-yl)piperidine-2,6-dione] | 0.25 nM
3 | O=C1CCC(N2Cc3c(SCc4csc(CN5CCOCC5)n4)cccc3C2=O)C(=O)N1 (centres unmarked) [SIAIS313163, 3-(4-(((2-(morpholinomethyl)thiazol-4-yl)methyl)thio)-1-oxoisoindolin-2-yl)piperidine-2,6-dione] | 9.38 ± 1.37 nM
4 | CN(CCCCNC(=O)CSc1cccc2c1CN(C1CCC(=O)NC1=O)C2=O)C12CC3CC(CC(C3)C1)C2 (centres unmarked) [SIAIS287105, N-(4-(adamantan-1-yl(methyl)amino)butyl)-2-((2-(2,6-dioxopiperidin-3-yl)-1-oxoisoindolin-4-yl)thio)acetamide] | 5.01 nM
5 | O=C1CCC(N2Cc3c(SCCC45CC6CC(CC(C6)C4)C5)cccc3C2=O)C(=O)N1 (centres unmarked) [SIAIS1222173, 3-(4-((2-(adamantan-1-yl)ethyl)thio)-1-oxoisoindolin-2-yl)piperidine-2,6-dione] | 0.42 nM
6 | O=C1CCC(N2Cc3c(SCCCCCN4CCNCC4)cccc3C2=O)C(=O)N1 (centres unmarked) [SIAIS1216063, 3-(1-oxo-4-((5-(piperazin-1-yl)pentyl)thio)isoindolin-2-yl)piperidine-2,6-dione] | 8.58 ± 2.58 nM
7 | O=C1CCC(N2Cc3c(SCCCCCO)cccc3C2=O)C(=O)N1 (centres unmarked) [SIAIS1220069, 3-(4-((5-hydroxypentyl)thio)-1-oxoisoindolin-2-yl)piperidine-2,6-dione] | 3.21 nM
8 | CCN(CC)CCCCCCCCCCCSc1cccc2c1CN(C1CCC(=O)NC1=O)C2=O (centres unmarked) [SIAIS1220047, 3-(4-((11-(diethylamino)undecyl)thio)-1-oxoisoindolin-2-yl)piperidine-2,6-dione] | 0.11 ± 0.01 nM
9 | O=C1CCC(N2Cc3c(SCCCCCCCCCN4CCOCC4)cccc3C2=O)C(=O)N1 (centres unmarked) [SIAIS1220065, 3-(4-((9-morpholinononyl)thio)-1-oxoisoindolin-2-yl)piperidine-2,6-dione] | 0.49 nM
10 | CCN(CC)CCCCCCCCCSc1cccc2c1CN(C1CCC(=O)NC1=O)C2=O (centres unmarked) [SIAIS1220067, 3-(4-((9-(diethylamino)nonyl)thio)-1-oxoisoindolin-2-yl)piperidine-2,6-dione] | 0.25 nM
11 | O=C1CCC(N2Cc3c(SCCCCCCCNC(C4CC4)C4CC4)cccc3C2=O)C(=O)N1 (centres unmarked) [SIAIS1224031, 3-(4-((7-((dicyclopropylmethyl)amino)heptyl)thio)-1-oxoisoindolin-2-yl)piperidine-2,6-dione] | 0.105 nM
12 | O=C1CCC(N2Cc3c(SCCCCCCCCN4CCC(N5CCNCC5)CC4)cccc3C2=O)C(=O)N1 (centres unmarked) [SIAIS1220019, 3-(1-oxo-4-((8-(4-(piperazin-1-yl)piperidin-1-yl)octyl)thio)isoindolin-2-yl)piperidine-2,6-dione] | 2.08 nM
13 | O=C1CCC(N2C(=O)c3cccc(SCc4ccc(CNC56CC7CC(CC(C7)C5)C6)cc4)c3C2=O)C(=O)N1 (centres unmarked) [SIAIS1222013, 4-((4-(((adamantan-1-yl)amino)methyl)benzyl)thio)-2-(2,6-dioxopiperidin-3-yl)isoindoline-1,3-dione] | 0.621 nM
14 | CC[N+](CC)(CC)CCCCCCCCSc1cccc2c1CN(C1CCC(=O)NC1=O)C2=O (centres unmarked) [SIAIS1220093, 8-((2-(2,6-dioxopiperidin-3-yl)-1-oxoisoindolin-4-yl)thio)-N,N,N-triethyloctan-1-aminium chloride] | 8.2 nM
15 | CN1CCN(C2CCN(CCCCCCCCSc3cccc4c3CN(C3CCC(=O)NC3=O)C4=O)CC2)CC1 (centres unmarked) [SIAIS1220049, 3-(4-((8-(4-(4-methylpiperazin-1-yl)piperidin-1-yl)octyl)thio)-1-oxoisoindolin-2-yl)piperidine-2,6-dione] | 0.26 nM
16 | C[C@H](NCc1ccc(CSc2cccc3c2CN(C2CCC(=O)NC2=O)C3=O)o1)C1CC1 (stereo partly drawn) [SIAIS313129, 3-(4-(((5-((((S)-1-cyclopropylethyl)amino)methyl)furan-2-yl)methyl)thio)-1-oxoisoindolin-2-yl)piperidine-2,6-dione] | 0.97 ± 0.55 nM

Compounds with a lower IC50, results first:

Row | IC50 | Structure (SMILES)
17 | 0.059 nM | CN(CCCCCCSc1cccc2c1CN(C1CCC(=O)NC1=O)C2=O)CC12CC3CC(CC(C3)C1)C2 (centres unmarked) [SIAIS1221127, 3-(4-((6-((adamantan-1-ylmethyl)(methyl)amino)hexyl)thio)-1-oxoisoindolin-2-yl)piperidine-2,6-dione]
18 | 0.057 nM | O=C1CCC(N2Cc3c(SCCCCCCN4CCC5(CCCCC5)CC4)cccc3C2=O)C(=O)N1 (centres unmarked) [SIAIS1221121, 3-(4-((6-(3-azaspiro[5.5]undecan-3-yl)hexyl)thio)-1-oxoisoindolin-2-yl)piperidine-2,6-dione]
19 | 0.051 nM | O=C1CCC(N2Cc3c(SCCCCCCCN4CCCCC4=O)cccc3C2=O)C(=O)N1 (centres unmarked) [SIAIS264042, 3-(1-oxo-4-((7-(2-oxopiperidin-1-yl)heptyl)thio)isoindolin-2-yl)piperidine-2,6-dione]
20 | 0.04 nM | CC(NCc1ccc(CSc2cccc3c2CN(C2CCC(=O)NC2=O)C3=O)cc1)C12CC3CC(CC(C3)C1)C2 (centres unmarked) [SIAIS1222157, 3-(4-((4-(((1-(adamantan-1-yl)ethyl)amino)methyl)benzyl)thio)-1-oxoisoindolin-2-yl)piperidine-2,6-dione]
21 | 0.03 ± 0.01 nM | O=C1CCC(N2Cc3c(SCc4cccc(CNC56CC7CC(CC(C7)C5)C6)c4)cccc3C2=O)C(=O)N1 (centres unmarked) [SIAIS1227135, 3-(4-((3-(((adamantan-1-yl)amino)methyl)benzyl)thio)-1-oxoisoindolin-2-yl)piperidine-2,6-dione]
22 | 0.028 ± 0.012 nM | O=C1CCC(N2Cc3c(SCCCCCCNCC45CC6CC(CC(C6)C4)C5)cccc3C2=O)C(=O)N1 (centres unmarked) [SIAIS1221013, 3-(4-((6-((adamantan-1-ylmethyl)amino)hexyl)thio)-1-oxoisoindolin-2-yl)piperidine-2,6-dione]
23 | 0.028 ± 0.003 nM | O=C1CCC(N2Cc3c(SCc4ccc(CCCNC56CC7CC(CC(C7)C5)C6)cc4)cccc3C2=O)C(=O)N1 (centres unmarked) [SIAIS1227047, 3-(4-((4-(3-((adamantan-1-yl)amino)propyl)benzyl)thio)-1-oxoisoindolin-2-yl)piperidine-2,6-dione]
24 | 0.023 nM | CC1CC(C)CN(CCc2ccc(CSc3cccc4c3CN(C3CCC(=O)NC3=O)C4=O)cc2)C1 (centres unmarked) [SIAIS1227165, 3-(4-((4-(2-(3,5-dimethylpiperidin-1-yl)ethyl)benzyl)thio)-1-oxoisoindolin-2-yl)piperidine-2,6-dione]
25 | 0.021 nM | CN(CCCCCCCSc1cccc2c1CN(C1CCC(=O)NC1=O)C2=O)[C@H]1C[C@H]2CC[C@]1(C)C2(C)C (stereo partly drawn) [SIAIS1221129, 3-(4-((7-(methyl((1R,2S,4R)-1,7,7-trimethylbicyclo[2.2.1]heptan-2-yl)amino)heptyl)thio)-1-oxoisoindolin-2-yl)piperidine-2,6-dione]
26 | 0.007 nM | CC1(C)[C@@H]2CC[C@@]1(C)[C@@H](NCCCCCCCSc1cccc3c1CN(C1CCC(=O)NC1=O)C3=O)C2 (stereo partly drawn) [SIAIS1221019, 3-(1-oxo-4-((7-(((1R,2S,4R)-1,7,7-trimethylbicyclo[2.2.1]heptan-2-yl)amino)heptyl)thio)isoindolin-2-yl)piperidine-2,6-dione]
